Measured values as given in PMC11385396 (Journal of Ginseng Research, 2024).

Tests used:
Format in all cases: in vivo, Sprague-Dawley rats
[1] = test system: coagulation factor II; assay: Plasma coagulation factor II in rats; settings: 12h after last dose of one week gavage
[2] = test system: coagulation factor X; assay: Plasma coagulation factor X in rats; settings: 12h after last dose of one week gavage
[3] = Coagulation function; settings: rats, 12h after last dose of one week gavage; compared with the control group

With `CC(=O)CC(c1ccccc1)c1c(O)c2ccccc2oc1=O` (stereo not shown) [Warfarin] the “plasma coagulation factor II” value [1] was “reduce”, the “plasma coagulation factor X” value [2] was “reduce” and the APTT [3] was “significantly increased”. The INR [3] was “significantly increased”.
